# In patent US9241497B2, “Method and apparatus for treatment of food products” (The United States of America, as represented by the …, priority 2005, dated 2016):
# Legend:
# Type in all cases: cell-based, Listeria monocytogenes
# L. monocytogenes [1] = test: Shelf-life studies: outgrowth on hams during refrigerated storage up to 60 days; conditions: for reduction of pathogen levels relative to untreated samples: after 24 h at 4° C.; for levels of L. monocytogenes compared to untreated control hams (statistical analyses): all volumes tested
# Source text: (§1) Bacterial Strains: Using a procedure described previously (Porto, A. C. S., et al., Journal of Food Protection, 65: 308-315 (2002)), approximately equal numbers of each of the following five strains of L. monocytogenes were used as a cocktail in this study: (i) Scott A (serotype 4b, clinical isolate); (ii) H7776 (serotype 4b, frankfurter isolate); (iii) LM-101M (serotype-4b, beef and pork sausage isolate); (iv) F6854 (serotype 1/2a, turkey frankfurter isolate); and (v) MFS-2 (serotype 1/2a, environmental isolate from a pork processing plant). For each experiment isolates were passed twice in brain heart infusion (BHI; Difco Laboratories, Detroit, Mich.) broth at 37° C. so that cells would be in the stationary phase for inoculating hams. Stock cultures were maintained by storage in BHI plus 10% (wt/vol) glycerol in 1.5-ml portions in cryovials and held at −80° C.
# Shelf-Life Studies: To evaluate the efficacy of ACS and LAE over the expected refrigerated shelf life of the product, a fresh batch of the same formulation of hams was obtained from the same commercial manufacturer as described previously. For these studies, hams were spot inoculated with 2 mL of the L. monocytogenes cocktail to achieve a target level of either 3.0 or 7.0 log10 CFU per ham. At each inoculation level one portion of the hams was transferred to shrink-wrap bags that were previously sprayed on the inside with 4, 6, or 8 mL of a 1:2 solution of ACS applied using a commercial spraying apparatus (AutoJet Spray System #45570-22-10-120V, Spraying Systems Co., Wheaton, Ill.) and commercial bagging apparatus (Taped Bag Loader #BL189, Cryovac). An otherwise similar portion of the inoculated hams was transferred to shrink-wrap bags that just prior to introduction of the hams were sprayed with 4, 6, or 8 mL of a 5% LAE solution using the commercial spraying and bagging apparatus. Control hams were also spot inoculated with either 3.0 or 7.0 log10 CFU of L. monocytogenes per ham and were transferred to shrink-wrap bags that were not sprayed with either compound. As described previously, hams were vacuum-sealed, submerged in hot (88° C.) water, and stored at 4° C. Hams were analyzed 1, 7, 14, 21, 28, 40, and, 60 days post-inoculation. For each of two trials, three hams were analyzed at each sampling point for both inoculation levels and for both chemicals tested.
# (§2) Microbiological Analyses: Surviving L. monocytogenes were enumerated using the USDA/ARS package rinse method (Luchansky J. B., et al., Journal of Food Protection, 65: 567-570 (2002)) and spread-plating 250 uL of the resulting rinse fluid or dilutions thereof onto duplicate modified Oxford agar plates (MOX; Cook, L. V., Isolation and identification of Listeria monocytogenes from red meat, poultry, egg, and environmental samples, Chapter 8, In: USDA/FSIS Microbiology Laboratory Guidebook (3rd ed., Revision 2), Washington, D.C. (1999)) using a sterile cell spreader and incubating for 48 h at 37° C. Listeria numbers were expressed as log10 CFU per ham with each package containing a single ham; the detection limit was 1.48 log10 CFU/ham. Periodically, isolates were retained from randomly selected samples and confirmed as L. monocytogenes following the recommended/standard USDA/FSIS protocol (Cook, 1999).
# L. monocytogenes [2] = test: Validation studies of initial post-process lethality on hams; conditions: for average decrease in pathogen levels compared to untreated control hams: ca. 7.0 log10 CFU per ham, after 24 h at 4° C.
# Source text: as §1
# Validation Studies: To validate the initial post-process lethality of ACS and LAE, a fresh batch of the same formulation of hams was obtained from the same commercial manufacturer as described previously. The hams were spot inoculated with 2 mL of the L. monocytogenes cocktail to achieve a target level of ca. 7.0 log10 CFU per ham, transferred to shrink-wrap bags (Cryovac) that were previously sprayed on the inside with 0, 2.5, 4.5, or 6.5 mL of a 1:2 solution of ACS or a 5% solution of LAE, vacuum sealed, submerged in hot (88° C.) water, and placed at 4° C. In each of three trials, three hams were analyzed at each concentration and volume of ACS and LAE tested after 24 h of refrigerated storage.
# as §2
# L. monocytogenes [3] = test: Lethality studies: ACS and LAE sprayed into shrink-wrap bags, inoculated hams, 24 h at 4° C.; conditions: ca. 7.0 log10 CFU per ham
# Source text: as §1
# Lethality Studies: To evaluate the lethality of acidic calcium sulfate (ACS; Safe2O-RTE 01, Mionix Corp., Naperville, Ill.) and lauramide arginine ester (LAE; Ethyl-N-dodecanoyl-L-arginate hydrochloride; CAS No. 60372-77-2; Mirenat-N, Vedeqsa, Barcelona, Spain; also known as lauric arginate), “table brown” hams (water, ground ham trims, brine, dextrose, sugar, sodium phosphate, sodium erythorbate, and sodium nitrite; ca. 3 pounds each ham) were processed and vacuum-sealed by a commercial processor (Hatfield Quality Meats, Hatfield, Pa.). The hams were boxed, transported back to the laboratory, and stored at 4° C. for up to 7 days. Each ham was aseptically removed from its original packaging, spot inoculated with 2 mL of the cocktail using a pipette to achieve a target level of ca. 7.0 log10 CFU per ham, and then transferred to a high-performance shrink-wrap bag (B2570T, Cryovac, Duncan, S.C.). Just prior to introducing the hams, the inside of each shrink-wrap bag was sprayed with 0, 2, 4, 6, or 8 mL of either a 1:1 (1 part ACS: 1 part dH2O) or 1:2 (1 part ACS:2 parts dH2O) solution of ACS or a 5% (5 parts LAE:95 parts dH2O) or 10% (10 parts LAE:90 parts dH2O) solution of LAE. The antimicrobials for these experiments were introduced via a 24-ounce plastic spray bottle (Koch Supplies, Kansas City, Mo.). Each bag was then vacuum sealed to 950 mBar using a Multivac A300/16 vacuum-packaging unit (Sepp Haggemüller K G, Wolfertschwenden, Germany), submerged in hot (88° C.) water for approximately 5 seconds to shrink the bag, and transferred to a 4° C. incubator and held for 24 h. In a single trial, three hams were analyzed for each concentration and volume of ACS and LAE tested after 24 h of refrigerated storage.
# as §2, with “Periodically, isolates were retained from randomly selected samples and confirmed as L. monocytogenes following the recommended/standard USDA/FSIS protocol (Cook, 1999).” left out
smiles,measurement,setting,value
"CCCCCCCCCCCC(=O)N[C@@H](CCCNC(=N)N)C(=O)OCC.Cl [LAE, Ethyl-N-dodecanoyl-L-arginate hydrochloride]",levels of the pathogen within 24 h,"L. monocytogenes [1]; 4, 6, and 8 mL of 5% solution of LAE, inoculum ca. 3.0 log10 CFU/ham, 4° C., detection limit 1.48 log10 CFU/ham",below the limit of detection
same,increase of L. monocytogenes levels after 60 days,"L. monocytogenes [1]; 4 and 6 mL of 5% LAE solution, inoculum ca. 3.0 log10 CFU/ham, 4° C.",ca. 2.0 log10 CFU/ham
same,increase of pathogen levels thereafter (after 24 h) within 60 days,"L. monocytogenes [1]; 4 mL of 5% solution of LAE, inoculum ca. 7.0 log10 CFU/ham, 4° C.",ca. 4.6 log10 CFU/ham
same,reduction of pathogen levels relative to untreated samples,"L. monocytogenes [1]; 4 mL of 5% solution of LAE, inoculum ca. 7.0 log10 CFU/ham",~5.1 log10 CFU/ham
same,increase of pathogen levels thereafter (after 24 h) within 60 days,"L. monocytogenes [1]; 6 mL of 5% solution of LAE, inoculum ca. 7.0 log10 CFU/ham, 4° C.",~3.0 log10 CFU/ham
same,reduction of pathogen levels relative to untreated samples,"L. monocytogenes [1]; 6 mL of 5% solution of LAE, inoculum ca. 7.0 log10 CFU/ham",~5.4 log10 CFU/ham
same,levels of L. monocytogenes after 60 days,"L. monocytogenes [1]; 8 mL of 5% LAE solution, inoculum ca. 3.0 log10 CFU/ham, 4° C., detection limit 1.48 log10 CFU/ham",remained below the detection limit
same,increase of pathogen levels thereafter (after 24 h) within 60 days,"L. monocytogenes [1]; 8 mL of 5% solution of LAE, inoculum ca. 7.0 log10 CFU/ham, 4° C.",~2.0 log10 CFU/ham
same,reduction of pathogen levels relative to untreated samples,"L. monocytogenes [1]; 8 mL of 5% solution of LAE, inoculum ca. 7.0 log10 CFU/ham",~5.5 log10 CFU/ham
same,duration of control of further outgrowth of L. monocytogenes,"L. monocytogenes [1]; initial inoculum of ca. 7.0 log10 CFU/ham, refrigerated storage",≥ 28 days
same,levels of L. monocytogenes compared to untreated control hams (statistical analyses),"L. monocytogenes [1]; inoculum ca. 3.0 log10 CFU/ham, day 1 through day 40",appreciably lower
same,levels of L. monocytogenes compared to untreated control hams (statistical analyses),"L. monocytogenes [1]; inoculum ca. 7.0 log10 CFU/ham, day 1 through day 60",appreciably lower
same,average decrease in pathogen levels compared to untreated control hams,L. monocytogenes [2]; 2.5 mL of 5% solution of LAE,ca. 4.6 log10 CFU/ham
same,average decrease in pathogen levels compared to untreated control hams,L. monocytogenes [2]; 4.5 mL of 5% solution of LAE,~5.9 log10 CFU/ham
same,reduction of levels of L. monocytogenes on the surface of hams (conclusion),"L. monocytogenes [2]; 5% solution of LAE, within 24 h at 4° C.",at least 5.0 log10 CFU/ham
same,average decrease in pathogen levels compared to untreated control hams,L. monocytogenes [2]; 6.5 mL of 5% solution of LAE,~6.1 log10 CFU/ham
same,decrease in L. monocytogenes levels,L. monocytogenes [3]; 2 mL of 5% solution of LAE,ca. 3.3 log10 CFU/ham
same,decrease in L. monocytogenes levels,L. monocytogenes [3]; 4 mL of 5% solution of LAE,ca. 6.5 log10 CFU/ham
same,decrease in L. monocytogenes levels,L. monocytogenes [3]; 6 mL of 5% solution of LAE,~5.6 log10 CFU/ham
same,decrease in L. monocytogenes levels,L. monocytogenes [3]; 8 mL of 5% solution of LAE,ca. 6.5 log10 CFU/ham
same,decrease in pathogen levels,"L. monocytogenes [3]; 10% solution of LAE, all 4 application volumes (2, 4, 6, 8 mL)",ca. 6.5 log10 CFU/ham
